In patent publication US8901313B2, “6,5-heterocyclic propargylic alcohol compounds and uses therefor” (Genentech, Inc., priority 2011, dated 2014):

Columns and labels:
[1] = tested on: NF-kB signaling through NIK in human embryonic kidney 293 cells; experiment: 293-NIK NF-kB-Luciferase reporter assay; format: cell-based; conditions: HEK293, 293 cells with tetracycline-inducible NIK, 1 ug/mL doxycycline, 24 hours, read-out: inhibitory value (IC50) for 293-NIK NF-kB-Luciferase activity
Source text: (1) The first assay was used to profile whether a test compound can inhibit the NF-kB signally through NIK inhibition without affecting cell viability. In this assay, human embryonic kidney 293 cells was stably transfected with a tetracycline-inducible NIK DNA construct containing a cytomegalovirus promoter plus two reporter DNA constructs. One reporter encoded firefly luciferase under the control of three repeats of an NF-kB response element from the ELAM-1 gene and reflects the level of NIK activity in the cells, whereas the other reporter constitutively expressed Renilla luciferase under the control of the herpes simplex virus thymidine kinase promoter and served as a general measure of cell viability. Cells were incubated with different concentrations of compounds (0.2% DMSO final) in medium containing 1 ug/mL doxycycline and 10% tet-system approved fetal bovine serum (Clontech) for 24 hours, after which the reporters' signals were detected using the Dual Glo luciferase detection system (Promega) according to the vendor's protocol. The compounds listed in Table 1 have the corresponding inhibitory value (IC50 in micromolar) for 293-NIK NF-kB-Luciferase activity (values for compounds are presented in the same order as found in Table 1): na, 0.059, na, na, na, 0.105, 0.027, na, 20, 1.2, na, 1.8, 0.0231, 0.879, 0.0361, 0.582, na, 0.142, na, 0.403, 0.059, 0.0331, na, na, 0.0573, 1.5, na, na, 0.0722, na, na, 0.589, 12.7, 3.7, 14.9, na, 0.707, 1, 0.0311, 0.332, 0.309, 0.0142, 0.051, 2.8, 0.129, na, na, 1.5, na, na, na, 1.3, 0.062, 20, 0.31, 0.104, 0.091, 0.037, 0.085, 0.279, na, 0.305, 0.064, 0.332, 0.133, 0.168, 0.217, 0.553, na and na.

[2] = tested on: REL-A (p65) nuclear translocation in HeLa cells; experiment: NIK RelA Translocation Assay (classical NF-kB signaling); format: cell-based; conditions: Homo sapiens; HeLa cells, compounds 4.5 hours, 10 ng/mL TNF-α 30 minutes; read-out: inhibitory value (IC50) for NIK RelA Translocation Assay
Experimental: (§1) (2) A second set of cell assay was used to define the selectivity of NIK inhibitors toward inhibition of classical vs. non-classical NF-kB signaling and rely on quantification of the nuclear translocation of p52 (NF-kB2) and REL-A (p65) using high content cellular imaging. For the p52 (non-classical NF-kB signaling) nuclear translocation assay, HeLa cells were treated with different concentrations of compounds (0.2% DMSO final) in medium containing 10% fetal bovine serum and then stimulated with 100 ng/mL of an anti-lymphotoxin beta receptor antibody (R&D Systems) for 5 hours. In the REL-A nuclear translocation assay, HeLa cells were incubated with compounds (0.2% DMSO final) for 4.5 hours in medium containing 10% fetal bovine serum before stimulating them with 10 ng/mL tumor necrosis factor (TNF)-α (R&D Systems) for 30 minutes. Cells were fixed with 4% paraformaldehyde, permeabilized by adding 0.1% Triton X-100 in phosphate buffered saline, and then incubated with either 2 ug/mL anti-p52 antibody (Millipore) or 400 ng/mL anti-REL-A (p65) antibody (Santa Cruz Biotechnology). Finally, the cells were incubated with an Alexa488-labeled secondary antibody (Invitrogen) and DRAQ5 DNA stain (Biostatus). Imaging was carried out using an Opera reader (Perkin Elmer) and data are analyzed with the aid of Acapella software (Perkin Elmer). The p52 or REL-A translocation into the nucleus was quantified by the ratio of the nuclear to cytoplasmic signal intensity. The concentration of inhibitor required for 50% inhibition (IC50 values) in these cell assays were derived from the plots of signal vs. inhibitor concentration. The compounds in listed in Table 1 have the corresponding inhibitory value (IC50 in micromolar) for NIK p52 Translocation Assay (values for compounds are presented in the same order as found in Table 1, and “na” means the data for this assay is to be determined): 0.326, 0.33, na, na, na, 0.218, 0.07, na, na, na, 0.129, 7.6, 0.077, 3.4, na, 0.518, na, 0.059, 0.514, 0.127, na, na, 0.010, na, na, 0.313, 0.275, na, 0.0727, na, na, na, na, na, na, 0.194, na, 6.4, 0.22, 0.346, na, na, na and na, na, na, na, na, na, 0.447, na, 0.089, 0.479, 0.489, 0.243, 0.747, 1, na, 1.9, 0.552, 2.1, na. na, na, na, na and na.
The compounds in listed in Table 1 has the corresponding inhibitory value (IC50 in micromolar) for NIK RelA Translocation Assay (values for compounds are presented in the same order as found in Table 1): 0.326, 0.33, na, na, na, 0.218, 0.07, na, na, na, na, na, 0.129, 7.6, 0.077, 3.4, na, 0.518, na, 0.059, 0.514, 0.127, na, na, 0.010, na, na, 0.313, 0.275, na, na, 0.0727, na, na, na, na, na, na, 0.194, na, 6.4, 0.22, 0.346, na, na, na, na, na, na, na, na, na, 0.447, na, 0.089, 0.479, 0.489, 0.243, 0.747, 1, na, 1.9, 0.552, 2.1, na, na, na, na, na and na.

[3] = target: T1, nuclear factor-kappa B (NF-kB)-inducing kinase (NIK) (Homo sapiens, UniProt Q99558); experiment: NIK Enzyme Inhibition Assay (Transcreener ADP assay); format: biochemical; conditions: purified NIK 0.2-1 nM, 10 uM ATP, fluorescence polarization, Morrison's quadratic equation; read-out: inhibitory value (Ki) for NIK
T1 construct: made in house; host or cells: baculovirus-infected insect cells
T1 sequence (Q99558 whole entry): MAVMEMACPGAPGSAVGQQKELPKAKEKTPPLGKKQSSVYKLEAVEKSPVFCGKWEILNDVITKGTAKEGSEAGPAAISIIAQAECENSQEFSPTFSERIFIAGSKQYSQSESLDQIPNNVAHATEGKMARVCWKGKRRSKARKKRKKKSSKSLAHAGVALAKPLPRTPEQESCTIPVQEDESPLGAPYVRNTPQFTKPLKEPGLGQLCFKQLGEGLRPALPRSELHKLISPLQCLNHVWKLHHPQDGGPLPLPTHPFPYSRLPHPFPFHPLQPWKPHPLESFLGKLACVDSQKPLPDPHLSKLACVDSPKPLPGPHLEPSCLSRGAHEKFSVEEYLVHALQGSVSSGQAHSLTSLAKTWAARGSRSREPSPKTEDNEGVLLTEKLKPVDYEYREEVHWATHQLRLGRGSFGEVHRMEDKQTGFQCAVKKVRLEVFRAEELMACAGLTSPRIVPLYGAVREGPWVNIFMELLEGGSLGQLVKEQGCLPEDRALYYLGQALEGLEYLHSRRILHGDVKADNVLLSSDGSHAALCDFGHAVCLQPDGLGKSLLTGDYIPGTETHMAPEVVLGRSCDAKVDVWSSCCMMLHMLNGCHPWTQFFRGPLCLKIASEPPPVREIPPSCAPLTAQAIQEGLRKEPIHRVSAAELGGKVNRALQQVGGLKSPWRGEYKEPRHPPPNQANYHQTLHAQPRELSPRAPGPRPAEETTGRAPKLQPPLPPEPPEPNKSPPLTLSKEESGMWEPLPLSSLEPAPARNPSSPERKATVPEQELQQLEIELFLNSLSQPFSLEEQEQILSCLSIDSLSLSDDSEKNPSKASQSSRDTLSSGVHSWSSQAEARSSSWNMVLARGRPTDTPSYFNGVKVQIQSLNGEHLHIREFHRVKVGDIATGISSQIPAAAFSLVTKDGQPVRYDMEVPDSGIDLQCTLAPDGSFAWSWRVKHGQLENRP

[4] = tested on: p52 (NF-kB2) nuclear translocation in HeLa cells; experiment: NIK p52 Translocation Assay (non-classical NF-kB signaling); format: cell-based; conditions: Homo sapiens; HeLa cells, 100 ng/mL anti-lymphotoxin beta receptor antibody, 5 hours; read-out: inhibitory value (IC50) for NIK p52 Translocation Assay
Experimental: as §1

Row | Compound | IC50 [1] | IC50 [2] | Ki [3] | IC50 [4]
1 | Cc1nn(-c2ccnc(N)n2)c2cc(C#C[C@@](C)(O)c3nccs3)ccc12 (stereo in doubt) [Example T1-42, 4-(1-(2-aminopyrimidin-4-yl)-3-methyl-1H-indazol-6-yl)-2-(thiazol-2-yl)but-3-yn-2-ol] | 14.2 nM | 220 nM | 0.14 nM | 
2 | Cc1nn(-c2ccnc(N)n2)c2cc(C#CC(C)(O)c3nccs3)ccc12 (stereo not drawn) [Example T1-13, 4-(1-(2-aminopyrimidin-4-yl)-3-methyl-1H-indazol-6-yl)-2-(thiazol-2-yl)but-3-yn-2-ol] | 23.1 nM | 129 nM | 0.262 nM | 77 nM
3 | CC(O)(C#Cc1ccc2nc(C3CC3)n(-c3ccnc(N)n3)c2c1)c1nccs1 (stereo not drawn) [Example T1-14, 4-(1-(2-aminopyrimidin-4-yl)-2-cyclopropyl-1H-benzo[d]imidazol-6-yl)-2-(thiazol-2-yl) but-3-yn-2-ol] | 879 nM | 7600 nM | 6.9 nM | 3400 nM
4 | CC(O)(C#Cc1ccc2cnn(-c3ccnc(N)n3)c2c1)c1ncco1 (stereo not drawn) [Example T1-15, 4-(1-(2-aminopyrimidin-4-yl)-1H-indazol-6-yl)-2-(oxazol-2-yl)but-3-yn-2-ol] | 36.1 nM | 77 nM | 0.32 nM | 
5 | CC1(C(=O)Nc2cnc(N)nc2-n2ncc3ccc(C#CC(C)(O)c4nccs4)cc32)COC1 (stereo not drawn) [Example T1-16, N-(2-amino-4-(6-(3-hydroxy-3-(thiazol-2-yl)but-1-ynyl)-1H-indazol-1-yl)pyrimidin-5-yl)-3-methyloxetane-3-carboxamide] | 582 nM | 3400 nM | 27 nM | 518 nM
6 | CC(O)(C#Cc1ccc2c(CN3CCOCC3)nn(-c3ccnc(N)n3)c2c1)c1nccs1 (stereo not drawn) [Example T1-18, 4-(1-(2-aminopyrimidin-4-yl)-3-(morpholinomethyl)-1H-indazol-6-yl)-2-(thiazol-2-yl) but-3-yn-2-ol] | 142 nM | 518 nM | 1.7 nM | 59 nM
7 | CC(C)(O)C#Cc1ccc2[nH]c(=O)n(-c3ccnc(N)n3)c2c1 [Example T1-20, 1-(2-aminopyrimidin-4-yl)-6-(3-hydroxy-3-methylbut-1-ynyl)-1H-benzo[d]imidazol-2(3H)-one] | 403 nM | 59 nM | 49 nM | 127 nM
8 | CC(O)(C#Cc1ccc2[nH]c(=O)n(-c3ccnc(N)n3)c2c1)c1nccs1 (stereo not drawn) [Example T1-21, 1-(2-aminopyrimidin-4-yl)-6-(3-hydroxy-3-(thiazol-2-yl)but-1-ynyl)-1H-benzo[d] imidazol-2(3H)-one] | 59 nM | 514 nM | 0.3 nM | 
9 | CN(C)Cc1nn(-c2ccnc(N)n2)c2cc(C#CC(C)(C)O)ccc12 [Example T1-25, 4-(1-(2-aminopyrimidin-4-yl)-3-((dimethylamino)methyl)-1H-indazol-6-yl)-2-methylbut-3-yn-2-ol] | 57.3 nM | 10 nM | 12 nM | 
10 | Cc1cc(C(C)(O)C#Cc2ccc3ncn(-c4ccnc(N)n4)c3c2)no1 (stereo not drawn) [Example T1-28, 4-(1-(2-aminopyrimidin-4-yl)-1H-benzo[d]imidazol-6-yl)-2-(5-methylisoxazol-3-yl) but-3-yn-2-ol] |  | 313 nM | 0.42 nM | 
11 | CN(C)C(=O)c1nn(-c2ccnc(N)n2)c2cc(C#CC(C)(O)c3nccs3)ccc12 (stereo not drawn) [Example T1-29, 1-(2-aminopyrimidin-4-yl)-6-(3-hydroxy-3-(thiazol-2-yl)but-1-ynyl)-N,N-dimethyl-1H-indazole-3-carboxamide] | 72.2 nM | 275 nM | 0.9 nM | 72.7 nM
12 | CN(C)Cc1nn(-c2ccnc(N)n2)c2cc(C#CC(C)(O)c3ncco3)ccc12 (stereo not drawn) [Example T1-32, 4-(1-(2-aminopyrimidin-4-yl)-3-((dimethylamino)methyl)-1H-indazol-6-yl)-2-(oxazol-2-yl)but-3-yn-2-ol] | 589 nM | 72.7 nM | 1.3 nM | 
13 | CC(O)(C#Cc1cc2c(cc1F)ncn2-c1ccnc(N)n1)c1nccs1 (stereo not drawn) [Example T1-39, 4-(1-(2-aminopyrimidin-4-yl)-5-fluoro-1H-benzo[d]imidazol-6-yl)-2-(thiazol-2-yl)but-3-yn-2-ol] | 31.1 nM | 194 nM | 0.25 nM | 220 nM
14 | Cc1cc(C(C)(O)C#Cc2ccc3ncn(-c4ccnc(N)n4)c3c2)on1 (stereo not drawn) [Example T1-41, 4-(1-(2-aminopyrimidin-4-yl)-1H-benzo[d]imidazol-6-yl)-2-(3-methylisoxazol-5-yl) but-3-yn-2-ol] | 309 nM | 6400 nM | 8.5 nM | 
15 | CN(C)C(=O)c1nn(-c2ccnc(N)n2)c2cc(C#CC(C)(O)c3ncco3)ccc12 (stereo not drawn) [Example T1-43, 1-(2-aminopyrimidin-4-yl)-6-(3-hydroxy-3-(oxazol-2-yl)but-1-ynyl)-N,N-dimethyl-1H-indazole-3-carboxamide] | 51 nM | 346 nM | 0.2 nM | 
